Source: PubChem BioAssay (NCI)
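Dose response: 5 concentrations. Exposure: 48 h. Format: 96-well plates. Endpoint: linear interpolation; highest concentration if not reached. Abbreviation: GI50, concentration required for 50% inhibition of growth. Definition used: TGI = concentration required for complete inhibition of growth.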

Assays:
Experiment in all cases: DTP human tumour cell line panel, 48 h
SF-268 CNS = tested on: SF-268 CNS
SF-539 CNS = tested on: SF-539 CNS
PC-3 prostate = tested on: PC-3 prostate
CCRF-CEM leukemia = tested on: CCRF-CEM leukemia
SW-620 colon = tested on: SW-620 colon
NCI-H460 lung = tested on: NCI-H460 lung
DU-145 prostate = tested on: DU-145 prostate
IGROV1 ovarian = tested on: IGROV1 ovarian
A549 NSCLC = tested on: A549 NSCLC
NCI-H23 lung = tested on: NCI-H23 lung
A498 renal = tested on: A498 renal
BT-549 breast = tested on: BT-549 breast
SK-MEL-5 melanoma = tested on: SK-MEL-5 melanoma
MOLT-4 leukemia = tested on: MOLT-4 leukemia
SK-MEL-2 melanoma = tested on: SK-MEL-2 melanoma
NCI-H522 lung = tested on: NCI-H522 lung
CAKI-1 renal = tested on: CAKI-1 renal
UACC-257 melanoma = tested on: UACC-257 melanoma
COLO 205 colon = tested on: COLO 205 colon
EKVX NSCLC = tested on: EKVX NSCLC
NCI/ADR-RES ovarian = tested on: NCI/ADR-RES ovarian
U251 CNS = tested on: U251 CNS
SNB-19 CNS = tested on: SNB-19 CNS
OVCAR-4 ovarian = tested on: OVCAR-4 ovarian
HCT-116 colon = tested on: HCT-116 colon
NCI-H226 lung = tested on: NCI-H226 lung
786-0 renal = tested on: 786-0 renal
M14 melanoma = tested on: M14 melanoma
TK-10 renal = tested on: TK-10 renal
LOX IMVI melanoma = tested on: LOX IMVI melanoma
HOP-62 NSCLC = tested on: HOP-62 NSCLC
KM12 colon = tested on: KM12 colon
MDA-MB-231 breast = tested on: MDA-MB-231 breast
OVCAR-3 ovarian = tested on: OVCAR-3 ovarian
UO-31 renal = tested on: UO-31 renal
HCC-2998 colon = tested on: HCC-2998 colon
HL-60(TB) leukemia = tested on: HL-60(TB) leukemia
HT29 colon = tested on: HT29 colon
SF-295 CNS = tested on: SF-295 CNS
SN12C renal = tested on: SN12C renal
OVCAR-8 ovarian = tested on: OVCAR-8 ovarian
HS 578T breast = tested on: HS 578T breast
RPMI-8226 leukemia = tested on: RPMI-8226 leukemia
K-562 leukemia = tested on: K-562 leukemia
OVCAR-5 ovarian = tested on: OVCAR-5 ovarian
HOP-92 NSCLC = tested on: HOP-92 NSCLC
UACC-62 melanoma = tested on: UACC-62 melanoma
RXF 393 renal = tested on: RXF 393 renal
MCF7 breast = tested on: MCF7 breast
SK-OV-3 ovarian = tested on: SK-OV-3 ovarian
ACHN renal = tested on: ACHN renal
HCT-15 colon = tested on: HCT-15 colon

Q: Which results are given for `COc1ccc(C(c2cc(OC)c(OC)c(OC)c2)n2cncn2)cc1O` (centres undefined)?
A: GI50 (SF-268 CNS): 649 nM; TGI (SF-268 CNS): > 100000 nM; GI50 (SF-539 CNS): 300 nM; TGI (SF-539 CNS): 1110 nM; GI50 (PC-3 prostate): 431 nM; TGI (PC-3 prostate): > 100000 nM; GI50 (CCRF-CEM leukemia): 402 nM; TGI (CCRF-CEM leukemia): > 100000 nM; GI50 (SW-620 colon): 431 nM; TGI (SW-620 colon): > 100000 nM; GI50 (NCI-H460 lung): 414 nM; TGI (NCI-H460 lung): > 100000 nM; GI50 (DU-145 prostate): 531 nM; TGI (DU-145 prostate): > 100000 nM; GI50 (IGROV1 ovarian): 959 nM; TGI (IGROV1 ovarian): > 100000 nM; GI50 (A549 NSCLC): 969 nM; TGI (A549 NSCLC): > 100000 nM; GI50 (NCI-H23 lung): 977 nM; TGI (NCI-H23 lung): > 100000 nM; GI50 (A498 renal): 324 nM; TGI (A498 renal): 957 nM; GI50 (BT-549 breast): 618 nM; TGI (BT-549 breast): > 100000 nM; GI50 (SK-MEL-5 melanoma): 440 nM; TGI (SK-MEL-5 melanoma): 38300 nM; GI50 (MOLT-4 leukemia): 510 nM; TGI (MOLT-4 leukemia): > 100000 nM; GI50 (SK-MEL-2 melanoma): 361 nM; TGI (SK-MEL-2 melanoma): > 100000 nM; GI50 (NCI-H522 lung): 395 nM; TGI (NCI-H522 lung): 2370 nM; GI50 (CAKI-1 renal): 567 nM; TGI (CAKI-1 renal): > 100000 nM; GI50 (UACC-257 melanoma): > 100000 nM; TGI (UACC-257 melanoma): > 100000 nM; GI50 (COLO 205 colon): 332 nM; TGI (COLO 205 colon): 1540 nM; GI50 (EKVX NSCLC): 2240 nM; TGI (EKVX NSCLC): > 100000 nM; GI50 (NCI/ADR-RES ovarian): 1180 nM; TGI (NCI/ADR-RES ovarian): > 100000 nM; GI50 (U251 CNS): 446 nM; TGI (U251 CNS): > 100000 nM; GI50 (SNB-19 CNS): 578 nM; TGI (SNB-19 CNS): > 100000 nM; GI50 (OVCAR-4 ovarian): 3020 nM; TGI (OVCAR-4 ovarian): > 100000 nM; GI50 (HCT-116 colon): 448 nM; TGI (HCT-116 colon): > 100000 nM; GI50 (NCI-H226 lung): 1430 nM; TGI (NCI-H226 lung): > 100000 nM; GI50 (786-0 renal): 474 nM; TGI (786-0 renal): > 100000 nM; GI50 (M14 melanoma): 374 nM; TGI (M14 melanoma): > 100000 nM; GI50 (TK-10 renal): > 100000 nM; TGI (TK-10 renal): > 100000 nM; GI50 (LOX IMVI melanoma): 523 nM; TGI (LOX IMVI melanoma): > 100000 nM; GI50 (HOP-62 NSCLC): 514 nM; TGI (HOP-62 NSCLC): > 100000 nM; GI50 (KM12 colon): 418 nM; TGI (KM12 colon): > 100000 nM; GI50 (MDA-MB-231 breast): 1500 nM; TGI (MDA-MB-231 breast): > 100000 nM; GI50 (OVCAR-3 ovarian): 323 nM; TGI (OVCAR-3 ovarian): 1480 nM; GI50 (UO-31 renal): 903 nM; TGI (UO-31 renal): > 100000 nM; GI50 (HCC-2998 colon): 1350 nM; TGI (HCC-2998 colon): > 100000 nM; GI50 (HL-60(TB) leukemia): 261 nM; TGI (HL-60(TB) leukemia): 687 nM; GI50 (HT29 colon): 330 nM; TGI (HT29 colon): 1900 nM; GI50 (SF-295 CNS): 325 nM; TGI (SF-295 CNS): > 100000 nM; GI50 (SN12C renal): 853 nM; TGI (SN12C renal): > 100000 nM; GI50 (OVCAR-8 ovarian): 1140 nM; TGI (OVCAR-8 ovarian): > 100000 nM; GI50 (HS 578T breast): 548 nM; TGI (HS 578T breast): > 100000 nM; GI50 (RPMI-8226 leukemia): 452 nM; TGI (RPMI-8226 leukemia): > 100000 nM; GI50 (K-562 leukemia): 427 nM; TGI (K-562 leukemia): > 100000 nM; GI50 (OVCAR-5 ovarian): 1990 nM; TGI (OVCAR-5 ovarian): > 100000 nM; GI50 (HOP-92 NSCLC): 9690 nM; TGI (HOP-92 NSCLC): > 100000 nM; GI50 (UACC-62 melanoma): 550 nM; TGI (UACC-62 melanoma): > 100000 nM; GI50 (RXF 393 renal): 321 nM; TGI (RXF 393 renal): > 100000 nM; GI50 (MCF7 breast): 347 nM; TGI (MCF7 breast): > 100000 nM; GI50 (SK-OV-3 ovarian): 402 nM; TGI (SK-OV-3 ovarian): > 100000 nM; GI50 (ACHN renal): 653 nM; TGI (ACHN renal): > 100000 nM; GI50 (HCT-15 colon): 438 nM; TGI (HCT-15 colon): > 100000 nM
